Where two headings read alike, the source gives them in different places.
Columns and labels:
[1] = system: diffuse large B-cell lymphoma (B-DLCL)
Experimental: DNA was extracted according to standard protocols known to those of skill in the art (see, e.g., Sambrook et al., Molecular Cloning: a Laboratory Manual, 2nd Ed.; Cold Spring Harbor Laboratory Press, Plainview, N.Y., 1998, herein incorporated by reference). Methylation patterns in the CpG island of MGMT were determined by chemical modification of unmethylated, but not methylated, cytosines to uracil. Methylation-specific polymerase chain reaction (PCR) was performed with primers specific for either methylated or the modified unmethylated DNA, as previously described (Esteller, et al. Cancer Res 1999; 59:793-797; incorporated herein by reference in its entirety; and Herman et al. Proc Natl Acad Sci USA 1996;93:9821-9826; incorporated herein by reference in its entirety). DNA (1 μg) was denatured with sodium hydroxide and modified with sodium bisulfite. DNA samples were then purified with the Wizard DNA purification resin (Promega, Madison, Wis.), again treated with sodium hydroxide, precipitated with ethanol, and resuspended in water. Primer sequences for the unmethylated reaction were 5′[…]3′ (forward primer; SEQ ID NO:1) and 5′[…]3′ (reverse primer; SEQ ID NO:2), and for the methylated reaction they were 5′[…]3′ (forward primer; SEQ ID NO:3) and 5′[…]3′ (reverse primer; SEQ ID NO:4). The annealing temperature was 59° C. Placental DNA treated in vitro with Sss I methyltransferase (New England Biolabs, Beverly, Mass.) was used as a positive control for methylated alleles of MGMT, and DNA from normal lymphocytes was used as a negative control. Controls without DNA were used for each set of methylation-specific PCR assays. Ten microliters of each 50-μl methylation-specific PCR product was loaded directly onto nondenaturing 6 percent polyacrylamide gels, stained with ethidium bromide, and examined under ultraviolet illumination.
Continuous variables were compared with the use of Student's t-test. Contingency tables were analyzed by Fisher's exact test. Disease-free and overall survival curves were estimated by the Kaplan-Meier method and were compared with the use of the log-rank test. Multivariate survival analyses were performed with the Cox proportional-hazards model, and proportional-hazards assumptions were checked with the use of Schoenfeld residuals and graphic methods. Descriptive or stratified analyses always preceded parametric modeling in order to confirm that the assumptions underlying the models were met. The results are reported as two-sided P values with 95 percent confidence intervals. Analyses were performed with the use of JMP software (version 3.1, SAS Institute, Cary, N.C.) and Stata software (version 6.0, Stata, College Station, Tex.).
Clinical follow-up was obtained until Aug. 31, 1999 or until death. […] Diagnosis was based on histopathology, immunophenotypic analysis of cell surface markers, and immunogenotypic analysis of immunoglobulin gene rearrangement. The histopathologic definition of B-DLCL was according to the REAL classification (Harris N L, et al., Blood. 1994;84:1361-92). Subjects positive for human immunodeficiency virus were not included in the study. Staging included routine blood chemistry tests; blood cell counts and differential; EKG; chest x-ray; computed tomography of chest, abdomen and pelvis; and bilateral bone marrow biopsy in all subjects. Disease stage was assessed according to Ann Arbor criteria (Carbone P P, et al., Cancer Res. 1971;31:1860-1). The International Prognostic […] (IPI) was calculated as described (The International Non-Hodgkin's Lymphoma Prognostic Factors Project. A predictive model for aggressive non-Hodgkin's lymphoma. N Engl J Med. 1993;329:987-94), with subjects classified as Low, Low-Intermediate, High-Intermediate, and High risk.
Treatment varied, depending on stage of disease, date of diagnosis, institution and prognostic factors.

[2] = system: grade III or IV gliomas (anaplastic astrocytoma, glioblastoma multiforme); assay: Clinical response, survival and time to progression of gliomas treated with carmustine, by MGMT promoter methylation status; type: in vivo, human
Experimental: The annealing temperature was 59° C.
Contingency tables were analyzed by Fisher's exact test.
Specimens of brain tumors from 47 consecutive subjects referred to the University Hospital of Navarre, in Pamplona, Spain, between April 1993 and November 1998 were studied. All the subjects provided written informed consent. […] Subjects were 38 to 70 years old (median age at diagnosis, 55 years); 30 were men, and 17 were women. Tumor specimens were obtained by resection or biopsy performed before the initiation of treatment with radiation and chemotherapy and were immediately frozen and stored at −80° C. All subjects were treated with intraarterial cisplatin (50 mg per square meter of body-surface area), whole-brain radiotherapy, and a median of three courses of intravenous carmustine (1,3-bis(2-chloroethyl)-1-nitrosourea, or BCNU; 100 mg per square meter) given at four-week intervals. Fifteen of the subjects also underwent autologous bone marrow transplantation plus high-dose chemotherapy treatment with three doses of intravenous carmustine (300 mg per square meter) per day and one dose of intraarterial cisplatin (100 mg)
The response to treatment was evaluated after the subjects had completed therapy. A complete response was defined as the absence of any evidence of the tumor on computed tomographic (CT) and magnetic resonance imaging (MRI) scans, with no need for steroid treatment and an improvement in the subject's general condition. Subjects with persistent CT abnormalities but with more than a 50 percent reduction in both the diameter and the volume of the tumor, a reduced need for steroid treatment, and a stabilized neurologic condition were considered to have a partial response. The disease was considered to have progressed if both the diameter and volume of the tumor increased by 25 percent or more of the initial measurements, if a new lesion was evident on CT or MRI scans, or if the subject's neurologic condition worsened and required an increased dose of steroids.
Forty-seven newly diagnosed grade III or IV gliomas (classified as anaplastic astrocytoma in 18 subjects and as glioblastoma multiforme in 29) were analyzed. Methylation of the MGMT promoter was found in 19 of the 47 tumors (40 percent) a frequency similar to that found in a previous study (Estellar, 1999, supra) and consistent with that in other reports (Silber et al., Cancer Res 1993; 53:3416-3420; and Silber et al., Cancer Res 1998; 58:1068-1073). Methylation was not associated with the subject's age, the Karnofsky score for performance status, or the grade of the tumor (P>0.3 for each comparison).

[3] = target: T1, MGMT (Homo sapiens, UniProt P16455); conditions: cited from earlier work
T1 sequence (P16455 1-207): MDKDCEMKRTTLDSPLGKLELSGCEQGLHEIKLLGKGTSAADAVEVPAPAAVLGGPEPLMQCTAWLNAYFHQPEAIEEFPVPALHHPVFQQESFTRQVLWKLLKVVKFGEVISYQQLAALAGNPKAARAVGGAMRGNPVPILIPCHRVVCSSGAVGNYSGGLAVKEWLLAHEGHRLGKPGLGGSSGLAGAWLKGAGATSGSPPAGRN

[4] = target: T1, MGMT; conditions: substrate for MGMT; cited from earlier work
[5] = subjects with MGMT methylation (N=30)
[6] = subjects without methylation (N=54)

O=P1(N(CCCl)CCCl)NCCCO1 (stereo not shown) [cyclophosphamide]
CR (complete remission) [1, 5]: 77% | NR [1, 5]: 10% | PR (partial remission) [1, 5]: 13% | NR [1, 6]: 22% | PCR (complete remission) [1, 6]: 63% | PR (partial remission) [1, 6]: 15% | time to death, hazard ratio for non-methylation ([1]; univariate, 95% CI 1.2 to 7.5, p=0.01): 2.8 | disease progression, hazard ratio without vs with methylation ([1]; univariate, 95% CI 1.3 to 5.8, p=0.005): 2.6

O=NN(CCCl)C(=O)NCCCl [carmustine, 1,3-bis(2-chloroethyl)-1-nitrosourea]
risk of death, hazard ratio ([2]; lack of methylation vs methylation, univariate, 95% CI 3.0 to 42.7): 9.5 | Complete response, % (95% CI) ([2]; methylated (N=19)): 11 (1-33) % | No Change, % (95% CI) ([2]; methylated (N=19)): 16 (3-38) % | Partial response, % (95% CI) ([2]; methylated (N=19)): 52 (29-76) % | Progression, % (95% CI) ([2]; methylated (N=19)): 21 (6-44) % | median time to the progression of disease ([2]; methylated gliomas): 21 months | time to progression, hazard ratio associated with nonmethylation ([2]; nonmethylation vs methylation, 95% CI 4.4 to 30.8): 10.8 | partial or complete response to carmustine ([2]; subjects with methylated MGMT promoter tumors (N=19)): 63% | partial or complete response to carmustine ([2]; subjects with unmethylated MGMT promoter tumors (N=28)): 4% | Complete response, % (95% CI) ([2]; unmethylated (N=28)): 0 (0-12) % | No Change, % (95% CI) ([2]; unmethylated (N=28)): 14 (4-33) % | Partial response, % (95% CI) ([2]; unmethylated (N=28)): 4 (0-18) % | Progression, % (95% CI) ([2]; unmethylated (N=28)): 82 (63-94) % | median time to the progression of disease ([2]; unmethylated gliomas): 8 months

Nc1nc(OCc2ccccc2)c2nc[nH]c2n1 [O^6-benzylguanine]
effect on sensitivity to cyclophosphamide metabolites [3]: increase sensitivity to cyclophosphamide metabolites | effect on response to alkyl nitrosoureas ([3]; in vitro and in vivo): enhance the response to alkyl nitrosoureas in vitro and in vivo | effect on MGMT enzyme [4]: inactivates the enzyme

From patent US6773897B2, “Method of predicting the clinical response to chemotherapeutic treatment with alkylating agents” (The Johns Hopkins University School of Medicine, priority 2000, dated 2004)
